From ChEMBL document CHEMBL5725727, “Substituted nicotinamide derivatives as kinase inhibitors” (2017) come the findings set out here.

For this assay, the target named is Platelet-derived growth factor receptor beta (Homo sapiens, UniProt P09619). The assay can be described thus: PDGFRβ Kinase Assay: Biochemical PDGFRβ kinase assays were performed in 96 well microtiter plates that were coated overnight with 75 μg of poly-Glu-Tyr (4:1) in 10 mM Phosphate Buffered Saline (PBS), pH 7.4. The coated plates were washed with 2 mls per well PBS+0.05% Tween-20 (PBS-T), blocked by incubation with PBS containing 1% BSA, then washed with 2 mls per well PBS-T prior to starting the reaction. Reactions were carried out in 100 μL reaction volumes containing 36 μM ATP in kinase buffer (50 mM Hepes buffer pH 7.4, 20 mM MgCl2, 0.1 mM MnCl2 and 0.2 mM Na3VO4). Test compounds were reconstituted in 100% DMSO and added to the reaction to give a final DMSO concentration of 5%. Reactions were initiated by the addition 20 ul per well of kinase buffer containing 200-300 ng purified cytoplasmic domain PDGFR-b protein (Millipore). Following a 60 minute incubation at 30° C., the reactions were washed 2 mls per well PBS-T. 100 μl of a monoclonal anti-phosphotyrosine antibody-peroxidase conjugate diluted 1:10,000 in PBS-T was added to the wells for 30 minutes. Following a 2 mls per well wash with PBS-Tween-20, 100 μl of O-Phenylenediamine Dihydrochloride in phosphate-citrate buffer, containing urea hydrogen peroxide, was added to the wells for 7-10 minutes as a colorimetric substrate for the peroxidase. […].
Platelet-derived growth factor receptor beta, sequence (P09619 whole entry): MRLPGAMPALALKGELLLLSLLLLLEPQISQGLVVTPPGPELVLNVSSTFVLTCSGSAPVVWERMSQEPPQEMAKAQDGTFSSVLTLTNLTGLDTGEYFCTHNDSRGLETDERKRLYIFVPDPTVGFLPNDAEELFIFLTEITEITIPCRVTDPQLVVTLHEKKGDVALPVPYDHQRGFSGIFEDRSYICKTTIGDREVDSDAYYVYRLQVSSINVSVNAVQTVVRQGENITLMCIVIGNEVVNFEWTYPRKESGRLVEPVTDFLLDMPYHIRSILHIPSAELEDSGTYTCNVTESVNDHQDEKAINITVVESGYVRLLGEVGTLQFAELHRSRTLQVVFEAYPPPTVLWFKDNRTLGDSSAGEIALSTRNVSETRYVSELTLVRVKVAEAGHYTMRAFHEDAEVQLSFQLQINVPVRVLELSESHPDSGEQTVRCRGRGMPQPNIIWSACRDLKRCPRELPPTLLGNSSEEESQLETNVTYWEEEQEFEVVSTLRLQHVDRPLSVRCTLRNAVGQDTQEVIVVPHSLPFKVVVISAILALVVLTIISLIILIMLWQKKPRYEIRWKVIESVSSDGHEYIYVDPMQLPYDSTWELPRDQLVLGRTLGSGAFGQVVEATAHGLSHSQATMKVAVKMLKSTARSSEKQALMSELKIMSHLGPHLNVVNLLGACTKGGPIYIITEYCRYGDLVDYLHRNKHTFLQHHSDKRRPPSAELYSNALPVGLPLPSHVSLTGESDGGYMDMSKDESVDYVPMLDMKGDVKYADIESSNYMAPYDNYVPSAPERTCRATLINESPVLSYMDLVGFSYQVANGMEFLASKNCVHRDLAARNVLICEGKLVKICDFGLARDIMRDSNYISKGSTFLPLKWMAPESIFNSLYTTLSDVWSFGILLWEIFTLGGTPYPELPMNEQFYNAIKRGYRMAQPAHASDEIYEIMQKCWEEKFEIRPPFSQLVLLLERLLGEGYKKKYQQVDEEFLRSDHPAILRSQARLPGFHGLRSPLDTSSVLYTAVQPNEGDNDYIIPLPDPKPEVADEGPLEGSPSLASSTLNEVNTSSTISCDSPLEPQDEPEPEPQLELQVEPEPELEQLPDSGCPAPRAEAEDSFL

As a reminder, the IC50 is the midpoint of a concentration-inhibition curve. A lower IC50 goes with inhibition by little substance. `Cc1ccc(F)c(NC(=O)c2cccc(C#Cc3cc(C(=O)N=S4(=O)CCOCC4)cnc3N)c2)c1` registered an IC50 of 11 nM. In other words, the double-digit nanomolar range.
